Calls of active or inactive are those of the source. The rule behind the calls is not given here.
What was measured:
[1] = target: T1, Glycogen synthase kinase-3 beta (Homo sapiens, UniProt P49841); experiment: Non-competitive inhibition of human recombinant GSK3beta using GS2 as substrate after 10 mins by Glow type luminescence analysis in presence of 1 to 50 uM ATP
Target sequence in this assay (P49841 whole entry, looked up): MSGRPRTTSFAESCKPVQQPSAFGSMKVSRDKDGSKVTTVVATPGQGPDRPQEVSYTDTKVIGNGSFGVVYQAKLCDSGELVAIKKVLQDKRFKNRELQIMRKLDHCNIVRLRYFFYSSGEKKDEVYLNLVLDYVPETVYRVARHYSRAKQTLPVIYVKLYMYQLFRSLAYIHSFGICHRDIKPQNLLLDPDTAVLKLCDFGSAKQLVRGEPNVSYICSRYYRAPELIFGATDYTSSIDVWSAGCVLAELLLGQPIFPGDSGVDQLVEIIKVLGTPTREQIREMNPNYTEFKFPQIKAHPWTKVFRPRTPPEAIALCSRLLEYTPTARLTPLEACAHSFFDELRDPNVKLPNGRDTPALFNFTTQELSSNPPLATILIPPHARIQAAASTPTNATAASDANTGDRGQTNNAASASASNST

[2] = target: T1, Glycogen synthase kinase-3 beta; experiment: Reversible inhibition of human recombinant GSK3beta using GS2 as substrate after 10 mins by Glow type luminescence analysis
Target sequence in this assay (P49841 whole entry, looked up): as above

[3] = target: T1, Glycogen synthase kinase-3 beta; experiment: Non-competitive inhibition of human recombinant GSK3beta using GS2 as substrate after 10 mins by Glow type luminescence analysis in presence of 1 uM ATP
Target sequence in this assay (P49841 whole entry, looked up): as above

[4] = target: T1, Glycogen synthase kinase-3 beta; experiment: Inhibition of human recombinant GSK3beta incubated for 30 mins by Kinase Glo luminescent kinase assay
Target sequence in this assay (P49841 whole entry): as the sequence (P49841 whole entry, looked up) above

[5] = target: T1, Glycogen synthase kinase-3 beta; experiment: Non-competitive inhibition of human recombinant GSK3beta using GS2 as substrate after 10 mins by Glow type luminescence analysis
Target sequence in this assay (P49841 whole entry, looked up): as above

inhibition [1]: Active | inhibition [2]: Active | inhibition [3]: Active | IC50 [4]: 3.01 µM | inhibition [5]: Active
SMILES: CCCCCCCCCCCC(=O)NNC(=O)c1c(O)c2ccccc2n(CC)c1=O

Source: ChEMBL document CHEMBL2034862, “Exploring the binding sites of glycogen synthase kinase 3. Identification and characterization of allosteric modulation cavities” (J Med Chem, 2011)
